Measured values taken from patent US20030215462A1, “Use of UGT inhibitors to increase bioavailability” (priority 2001, published 2003).

What was measured:
[1] = test system: T1, UGT enzymes of human liver microsomes; experiment: Inhibition of 2ME2 glucuronidation (MG1, MG2) in human liver microsomes; assay type: biochemical; settings: liver 062101, 2ME2 50 μM
T1 construct: other: liver 062101
From the text: (§1) Compounds were eluted using a binary solvent gradient system where solvent A was dilute phosphoric acid (pH 3) and solvent B was 80:20 acetonitrile-methanol. […] Detection was at 280 nm.

[2] = test system: UGT enzymes of human liver microsomes; experiment: Inhibition of raloxifene glucuronidation (G1, G2) in human liver microsomes; assay type: biochemical; settings: for % of control metabolism (SD, n = 3), raloxifene glucuronide G1 / % of control metabolism (SD, n = 3), raloxifene glucuronide G2: human liver microsomes 250 μg/ml, 15 min
From the text: (§2) Compounds were eluted using a binary solvent gradient system. […] Solvent B was methanol. […] Detection was at 280 nm.

[3] = molecular target: T2, UGT1A9 (Homo sapiens, UniProt O60656); experiment: Inhibition of raloxifene glucuronidation by recombinant UGT1A9 Supersomes; settings: for % of control metabolism, raloxifene G1 / % of control metabolism, raloxifene G2: UGT1A9; for Inhibition of raloxifene glucuronidation, UGT1A9, first line per inhibitor (G1): first line (G1, metabolite not given); for Inhibition of raloxifene glucuronidation, UGT1A9, first line per inhibitor (G1) / Inhibition of raloxifene glucuronidation, UGT1A9, second line per inhibitor (G2): raloxifene 50 μM, 250 μg/ml Supersomes, 1 mM UDPGA, 15 min; for Inhibition of raloxifene glucuronidation, UGT1A9, second line per inhibitor (G2): second line (G2, metabolite not given)
T2 sequence (O60656 26-530): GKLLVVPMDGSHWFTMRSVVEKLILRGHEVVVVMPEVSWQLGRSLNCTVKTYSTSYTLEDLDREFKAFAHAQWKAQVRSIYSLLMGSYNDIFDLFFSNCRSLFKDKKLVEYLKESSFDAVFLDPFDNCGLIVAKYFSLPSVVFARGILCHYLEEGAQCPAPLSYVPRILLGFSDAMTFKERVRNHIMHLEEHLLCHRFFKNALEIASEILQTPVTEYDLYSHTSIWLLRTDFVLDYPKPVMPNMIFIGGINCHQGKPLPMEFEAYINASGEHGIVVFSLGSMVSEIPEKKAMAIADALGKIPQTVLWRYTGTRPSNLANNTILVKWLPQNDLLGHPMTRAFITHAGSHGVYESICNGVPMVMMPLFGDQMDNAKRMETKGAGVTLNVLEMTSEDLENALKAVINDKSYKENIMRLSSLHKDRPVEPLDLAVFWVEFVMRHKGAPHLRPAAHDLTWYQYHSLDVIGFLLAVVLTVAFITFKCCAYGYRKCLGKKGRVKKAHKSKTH

[4] = test system: UGT enzymes of pooled human jejunum microsomes; experiment: Inhibition of raloxifene glucuronidation (G1, G2) in pooled human jejunum microsomes; assay type: biochemical; settings: jejunum HJ61; inhibitor 50 μM
Experimental: as §2
Standardized incubations utilized […] microsomal protein, 1 mM UDPGA and a 30 min incubation time.

[5] = molecular target: T3, UGT1A10 (Homo sapiens, UniProt Q9HAW8); experiment: Inhibition of raloxifene glucuronidation by recombinant UGT1A10 Bacculosomes; settings: UGT1A10
T3 sequence (Q9HAW8 26-530): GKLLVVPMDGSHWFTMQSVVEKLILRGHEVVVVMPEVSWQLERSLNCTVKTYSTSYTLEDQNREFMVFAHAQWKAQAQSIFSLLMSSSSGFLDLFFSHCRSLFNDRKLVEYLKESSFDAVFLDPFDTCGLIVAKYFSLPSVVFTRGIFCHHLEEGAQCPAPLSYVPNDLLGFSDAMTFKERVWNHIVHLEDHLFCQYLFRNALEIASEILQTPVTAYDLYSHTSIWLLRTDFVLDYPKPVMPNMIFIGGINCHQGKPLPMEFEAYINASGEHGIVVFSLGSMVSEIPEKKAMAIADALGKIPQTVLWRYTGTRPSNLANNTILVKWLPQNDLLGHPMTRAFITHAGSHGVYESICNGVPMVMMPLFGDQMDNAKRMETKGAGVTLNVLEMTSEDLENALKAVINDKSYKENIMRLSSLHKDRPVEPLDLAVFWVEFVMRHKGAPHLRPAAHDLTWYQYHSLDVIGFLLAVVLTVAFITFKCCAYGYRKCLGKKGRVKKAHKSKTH
Experimental: Compounds were eluted using a binary solvent gradient system. Solvent A was water brought to pH 8 with NH4OH. Solvent B was methanol. Solvent flow rate was 1 ml/min and the column temperature was maintained at 50° C. Detection was at 280 nm. […] The system was then returned to the initial conditions and equilibrated for 3 min.

[6] = test system: UGT enzymes of pooled human jejunum microsomes; experiment: Inhibition of estradiol (E2) glucuronidation in pooled human jejunum microsomes; assay type: biochemical; settings: jejunum HJ61; E2 50 μM; inhibitor 50 μM
From the text: as §1

[7] = test system: T4, UGT enzymes of human liver microsomes; experiment: Inhibition of labetalol glucuronidation (LG1, LG2) in human liver microsomes; assay type: biochemical; settings: labetalol 50 μM; inhibitor 100 μM
T4 construct: residual metabolism (percentage of control), labetalol LG1; other: labetalol 50 μM; residual metabolism (percentage of control), labetalol LG1; residual metabolism (percentage of control), labetalol LG2; inhi

[8] = inhibitor 10 μM, raloxifene 50 μM
[9] = inhibitor 25 μM, raloxifene 50 μM
[10] = inhibitor 50 μM, raloxifene 50 μM
[11] = inhibitor 100 μM, raloxifene 50 μM
[12] = inhibitor 500 μM, raloxifene 50 μM
[13] = liver lot 032101, inhibitor 50 μM
[14] = liver lot 062101, inhibitor 50 μM
[15] = liver lot 083000, inhibitor 50 μM
[16] = raloxifene 50 μM, inhibitor 10 μM
[17] = raloxifene 50 μM, inhibitor 25 μM
[18] = raloxifene 50 μM, inhibitor 50 μM
[19] = raloxifene 50 μM, inhibitor 100 μM

O=C(O[C@@H]1Cc2c(O)cc(O)cc2O[C@@H]1c1cc(O)c(O)c(O)c1)c1cc(O)c(O)c(O)c1 [Epigallocatechin gallate]
residual metabolism (% of control), 2ME2 MG1 ([1]; inhibitor 25 μM): 61 (1) % | residual metabolism (% of control), 2ME2 MG2 ([1]; inhibitor 25 μM): 79 (0) % | residual metabolism (% of control), 2ME2 MG1 ([1]; inhibitor 50 μM): 48 (2) % | residual metabolism (% of control), 2ME2 MG2 ([1]; inhibitor 50 μM): 71 (1) % | residual metabolism (% of control), 2ME2 MG1 ([1]; inhibitor 100 μM): 29 (1) % | residual metabolism (% of control), 2ME2 MG2 ([1]; inhibitor 100 μM): 35 (1) % | % of control metabolism (SD, n = 3), raloxifene glucuronide G1 [2, 8]: 85 (3) % | % of control metabolism (SD, n = 3), raloxifene glucuronide G1 [2, 9]: 56 (1) % | % of control metabolism (SD, n = 3), raloxifene glucuronide G1 [2, 10]: 46 (2) % | % of control metabolism (SD, n = 3), raloxifene glucuronide G1 [2, 11]: 22 (1) % | % of control metabolism (SD, n = 3), raloxifene glucuronide G1 [2, 12]: 0 (0) % | % of control metabolism (SD, n = 3), raloxifene glucuronide G2 [2, 8]: 82 (3) % | % of control metabolism (SD, n = 3), raloxifene glucuronide G2 [2, 9]: 63 (1) % | % of control metabolism (SD, n = 3), raloxifene glucuronide G2 [2, 10]: 50 (3) % | % of control metabolism (SD, n = 3), raloxifene glucuronide G2 [2, 11]: 27 (2) % | % of control metabolism (SD, n = 3), raloxifene glucuronide G2 [2, 12]: 0 (0) % | % of control metabolism, raloxifene G1 [2, 13]: 54 (2) % | % of control metabolism, raloxifene G2 [2, 13]: 50 (2) % | % of control metabolism, raloxifene G1 [2, 14]: 68 (2) % | % of control metabolism, raloxifene G2 [2, 14]: 41 (2) % | % of control metabolism, raloxifene G1 [2, 15]: 46 (2) % | % of control metabolism, raloxifene G2 [2, 15]: 50 (3) % | % of control metabolism, raloxifene G1 [2, 16]: 85 (3) % | % of control metabolism, raloxifene G2 [2, 16]: 82 (3) % | % of control metabolism, raloxifene G1 [2, 17]: 56 (1) % | % of control metabolism, raloxifene G2 [2, 17]: 63 (1) % | % of control metabolism, raloxifene G1 [2, 18]: 46 (2) % | % of control metabolism, raloxifene G2 [2, 18]: 50 (3) % | % of control metabolism, raloxifene G1 [2, 19]: 22 (1) % | % of control metabolism, raloxifene G2 [2, 19]: 27 (2) % | % of control metabolism, raloxifene G1 ([3]; inhibitor 25 μM): 58 (1) % | % of control metabolism, raloxifene G2 ([3]; inhibitor 25 μM): 50 (1) % | % of control metabolism, raloxifene G1 ([3]; inhibitor 50 μM): 33 (4) % | % of control metabolism, raloxifene G2 ([3]; inhibitor 50 μM): 22 (2) % | Inhibition of raloxifene glucuronidation, UGT1A9, first line per inhibitor (G1) ([3]; inhibitor 25 μM): 58 (1) | Inhibition of raloxifene glucuronidation, UGT1A9, first line per inhibitor (G1) ([3]; inhibitor 50 μM): 33 (4) | Inhibition of raloxifene glucuronidation, UGT1A9, second line per inhibitor (G2) ([3]; inhibitor 25 μM): 50 (1) | Inhibition of raloxifene glucuronidation, UGT1A9, second line per inhibitor (G2) ([3]; inhibitor 50 μM): 22 (2) | % of control metabolism, raloxifene G1 [4]: 38 (2) % | % of control metabolism, raloxifene G2 [4]: 35 (4) % | % of control metabolism, raloxifene G1 ([5]; inhibitor 25 μM): 68 (1) % | % of control metabolism, raloxifene G2 ([5]; inhibitor 25 μM): 73 (1) % | % of control metabolism, raloxifene G1 ([5]; inhibitor 50 μM): 37 (2) % | % of control metabolism, raloxifene G2 ([5]; inhibitor 50 μM): 37 (1) % | residual metabolism (% of control), E2-3-β-D-glucuronide [6]: 32 (0) % | residual metabolism (% of control), E2-17-β-D-glucuronide [6]: 41 (4) % | residual metabolism (percentage of control), labetalol LG1 [7]: 55 (2) % | residual metabolism (percentage of control), labetalol LG2 [7]: 52 (5) %
